Each structure is given as a SMILES string. pIC50: −log10 of the molar value.

The test system of the test is Ehrlich. The experiment in a line: Cytotoxicity against albino mouse Ehrlich carcinoma cells after 1 hr. Type of test: functional, cell-based.
Take `CC(=O)N[C@H]1[C@H](O[C@H]2[C@H](O[C@H]3CC[C@]4(C)C5=C(CC[C@H]4C3(C)C)[C@]3(C(=O)O)CCC([C@H](C)CCC(C)(OC(C)=O)C(C)C)[C@@]3(C)CC5)O[C@H](CO)[C@H](O)[C@@H]2O)O[C@H](CO)[C@@H](O)[C@@H]1O` (stereo partly specified) [ERYLOSIDE F6]: the pIC50 (as a rule, −log10 of the IC50, conventionally taken in molar units) was 4.70.
The figure for `C[C@H](CCC(C)(O)C(C)(C)C)C1CC[C@@]2(C(=O)O)C3=C(CC[C@]12C)[C@@]1(C)CC[C@H](O[C@@H]2O[C@H](CO)[C@H](O)[C@H](O[C@@H]4O[C@H](CO)[C@@H](O)[C@H](O)[C@H]4O)[C@H]2O)C(C)(C)[C@@H]1CC3` (stereo partly specified) [ERYLOSIDE F7] is 4.70; for `C[C@H](CCC(C)(O)C(C)(C)C)C1CC[C@@]2(C(=O)O)C3=C(CC[C@]12C)[C@@]1(C)CC[C@H](O[C@@H]2O[C@H](CO)[C@H](O)[C@H](O)[C@H]2O)C(C)(C)[C@@H]1CC3` (stereo partly specified) [ERYLOSIDE R] it is 4.70.
In the case of `CC(=O)OC(C)(CC[C@@H](C)C1CC[C@@]2(C(=O)O)C3=C(CC[C@]12C)[C@@]1(C)CC[C@H](O[C@@H]2O[C@H](CO)[C@H](O)[C@H](O)[C@H]2O)C(C)(C)[C@@H]1CC3)C(C)C` (stereo partly specified) [ERYLOSIDE S], the pIC50 was 4.70.
For the molecule `C[C@H](CCC(C)(O)C(C)(C)C)C1CC[C@]23C(=O)O[C@]4(CC[C@]12C)C3=CC[C@H]1C(C)(C)[C@@H](O[C@@H]2O[C@H](CO)[C@H](O)[C@H](O)[C@H]2O)CC[C@@]14C` (stereo partly specified) [ERYLOSIDE T], the negative-log IC50 (pIC50) was 4.70.
The figure for `C[C@H](CCC(C)(O)C(C)(C)C)C1CC[C@@]2(C(=O)O)C3=C(CC[C@]12C)[C@@]1(C)CC[C@H](O[C@@H]2OC[C@H](O)[C@H](O[C@@H]4OC[C@@H](O)[C@H](O)[C@H]4O)[C@H]2O[C@@H]2O[C@H](CO)[C@H](O)[C@H](O)[C@H]2O)C(C)(C)[C@@H]1CC3` (stereo partly specified) [ERYLOSIDE V] is 4.70.
